Columns and labels:
IGR-Heu tumor cells [1] = experiment: Lysis (4 h 51Cr-release) by CTL clones of siRNA-electroporated IGR-Heu target cells; type: cell-based, human; settings: CTL Heu161, FIG. 5C
Method: (§1) FIG. 5: Processing of the preprocalcitonin16-25 antigenic peptide involves SP and SPP. A. IGR-Heu tumor cells were incubated for 2 h at 37° C. with the serine protease inhibitor dichloroisocoumarin (DCI) at 250 μM, before addition of anti-preprocalcitonin (left panel) or anti-α-actinin-4 (right panel) CTL clones. B. Analysis of SPP mRNA expression by real-time RT-PCR analysis. Total RNA extracted from IGR-Heu tumor cells, electroporated or not with siRNA targeting SPP (siRNA-S1, siRNA-S2), was reverse-transcribed and quantified by TaqMan as described in Materials and Methods. C. Effect of SPP extinction on tumor cell recognition. Lytic activity of CTL clones Heu161 and Heu127 against IGR-Heu target cells, electroporated or not with siRNA-S1, siRNA-S2 or control siRNA, determined by a conventional 4 h ^51Cr-release assay at the indicated E/T ratios. Two representative experiments of six are shown for CTL clone Heu161. D. Production of IFNγ by Heu161 and Heu127 CTL clones stimulated with tumor cells electroporated or not with siRNA-S1 or control siRNA. E. The preprocalcitonin16-25 antigenic peptide is located at the C-terminus of the signal sequence of the calcitonin hormone precursor. […]
(§2) Cytotoxic activity was measured by a conventional 4-h ^51Cr-release assay using triplicate cultures in round-bottomed 96-well plates. Percent specific cytotoxicity was calculated conventionally; SD were <5%. […]

SPP = SPP expression in IGR-Heu cells electroporated with siRNA (real-time RT-PCR; protein); type: cell-based, human; settings: for SPP expression at RNA level: 50 nM siRNA, 72 h, FIG. 5B; for SPP expression at protein level: data not shown
Method: FIG. 5: Processing of the preprocalcitonin16-25 antigenic peptide involves SP and SPP. A. IGR-Heu tumor cells were incubated for 2 h at 37° C. with the serine protease inhibitor dichloroisocoumarin (DCI) at 250 μM, before addition of anti-preprocalcitonin (left panel) or anti-α-actinin-4 (right panel) CTL clones. B. Analysis of SPP mRNA expression by real-time RT-PCR analysis. Total RNA extracted from IGR-Heu tumor cells, electroporated or not with siRNA targeting SPP (siRNA-S1, siRNA-S2), was reverse-transcribed and quantified by TaqMan as described in Materials and Methods. C. Effect of SPP extinction on tumor cell recognition. Lytic activity of CTL clones Heu161 and Heu127 against IGR-Heu target cells, electroporated or not with siRNA-S1, siRNA-S2 or control siRNA, determined by a conventional 4 h ^51Cr-release assay at the indicated E/T ratios. Two representative experiments of six are shown for CTL clone Heu161. D. Production of IFNγ by Heu161 and Heu127 CTL clones stimulated with tumor cells electroporated or not with siRNA-S1 or control siRNA. E. The preprocalcitonin16-25 antigenic peptide is located at the C-terminus of the signal sequence of the calcitonin hormone precursor. The optimal peptide recognized by CTL clone Heu161 is boxed. Arrows indicate the signal peptidase (SP) and the approximate signal peptide peptidase (SPP) cleavage sites. The n, h and c regions in the preprocalcitonin signal peptide were predicted using SignalP 3.0 software.
For SPP inhibition, we first tried the cysteine protease inhibitor Z-LL2 ketone (Calbiochem, Darmstadt, Germany), which was reported to specifically block SPP activity (WEIHOFEN et al., J Biol Chem, 275, 30951-6, 2000). No conclusive results were obtained in functional assays. We thus used siRNA targeting human SPP, siRNA-S1 (5-GACAUGCCUGAAACAAUCAtt-3; SEQ ID NO: 3) and siRNA-S2 (5-UGAUUGUUUCAGGCAUGUCtg-3; SEQ ID NO: 4), purchased from Ambion (Austin, Tex. USA). Non-targeting siRNA (Ambion) were used as negative control (siRNA Control). Briefly, IGR-Heu cells were transfected by electroporation with 50 nM siRNA in a Gene Pulser Xcell Electroporation System (Bio-Rad; 300 V, […]) as previously described (LE FLOC'H et al., J Exp Med, 2007) and then allowed to grow for 72 h.
For SPP mRNA expression, total RNA from IGR-Heu cells, transfected or not with siRNA-S 1 and siRNA-S2 targeting SPP, was extracted, reverse-transcribed and quantified by real-time RT-PCR analysis (TaqMan). PCR primers and probe were designed by Applied Biosystems and used according to the manufacturer's recommendations. The amount of RNA sample was normalized by amplification of an endogenous control (18S). […]

IGR-Heu tumor cells [2] = experiment: SP inhibition: lysis by CTL clones of DCI-treated IGR-Heu tumor cells; type: cell-based, human; settings: pre-incubation of IGR-Heu, 250 μM, 2 h 37° C.; FIG. 5A
Method: as §1, §2

human TAP = target: T1, human TAP (Homo sapiens, UniProt Q03518+Q03519); experiment: TAP involvement: CTL recognition of 293-EBNA transfectants cotransfected with ICP47; type: cell-based
T1 construct: endogenous in cells; host or cells: 293-EBNA cells
T1 sequence (Q03518 1-748): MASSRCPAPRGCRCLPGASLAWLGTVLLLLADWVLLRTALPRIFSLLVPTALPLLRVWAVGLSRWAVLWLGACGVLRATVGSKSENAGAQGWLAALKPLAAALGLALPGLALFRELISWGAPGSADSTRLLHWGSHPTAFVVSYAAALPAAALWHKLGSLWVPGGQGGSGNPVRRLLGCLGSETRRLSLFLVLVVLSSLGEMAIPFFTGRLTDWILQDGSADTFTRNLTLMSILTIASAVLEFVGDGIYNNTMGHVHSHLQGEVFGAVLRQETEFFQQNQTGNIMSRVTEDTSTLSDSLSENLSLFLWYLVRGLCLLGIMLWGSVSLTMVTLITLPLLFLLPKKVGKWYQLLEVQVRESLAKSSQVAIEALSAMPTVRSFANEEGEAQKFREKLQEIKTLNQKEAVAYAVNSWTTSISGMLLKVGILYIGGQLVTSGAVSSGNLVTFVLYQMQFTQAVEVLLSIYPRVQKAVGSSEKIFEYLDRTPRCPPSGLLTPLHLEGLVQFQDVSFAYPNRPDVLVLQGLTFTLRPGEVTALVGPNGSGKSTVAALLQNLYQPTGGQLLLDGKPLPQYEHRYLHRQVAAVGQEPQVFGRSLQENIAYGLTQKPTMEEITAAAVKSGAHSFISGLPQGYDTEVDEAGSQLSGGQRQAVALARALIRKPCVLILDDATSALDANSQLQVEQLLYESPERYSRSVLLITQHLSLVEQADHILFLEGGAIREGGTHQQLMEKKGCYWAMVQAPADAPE
T1 sequence (Q03519 1-686): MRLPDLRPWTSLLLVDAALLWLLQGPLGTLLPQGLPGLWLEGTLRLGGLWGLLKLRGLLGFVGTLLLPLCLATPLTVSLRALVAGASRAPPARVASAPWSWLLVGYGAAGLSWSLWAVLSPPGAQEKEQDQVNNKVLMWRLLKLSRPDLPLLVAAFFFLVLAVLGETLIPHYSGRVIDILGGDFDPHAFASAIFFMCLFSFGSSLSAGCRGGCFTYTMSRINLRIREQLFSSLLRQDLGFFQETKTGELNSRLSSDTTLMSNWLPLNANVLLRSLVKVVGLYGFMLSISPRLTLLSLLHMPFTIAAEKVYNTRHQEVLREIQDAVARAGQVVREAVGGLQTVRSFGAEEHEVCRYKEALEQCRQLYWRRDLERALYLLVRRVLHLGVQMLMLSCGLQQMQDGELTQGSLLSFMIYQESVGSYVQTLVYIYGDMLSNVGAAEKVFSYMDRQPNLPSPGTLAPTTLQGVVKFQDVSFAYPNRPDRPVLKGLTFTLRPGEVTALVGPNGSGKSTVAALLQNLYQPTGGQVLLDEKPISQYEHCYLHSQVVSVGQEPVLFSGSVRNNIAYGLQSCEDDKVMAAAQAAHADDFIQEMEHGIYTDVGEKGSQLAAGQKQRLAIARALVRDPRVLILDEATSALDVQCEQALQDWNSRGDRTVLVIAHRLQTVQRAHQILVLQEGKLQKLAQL
Method: FIG. 4: Processing of the preprocalcitonin16-25 peptide is proteasome- and TAP-independent. A. IGR-Heu target cells were incubated for 2 h at 37° C. in the presence or absence of the proteasome-specific inhibitor epoxomicin, and then Heu161 cells were added. The autologous Heu127 clone, recognizing on IGR-Heu a proteasome-dependent mutated α-actinin-4 peptide, was included as a positive control. TNFβ released in medium after 24 h of culture was measured as above. B. 293-EBNA cells were cotransfected with pCEP4 containing either cDNA 150 (upper panel) or the mutated α-actinin-4 cDNA (lower panel), with pcDNA3.1 containing an HLA-A*0201 construct, and with various amounts of vector pBJi-neo containing IPC47 cDNA. CTL clones Heu161 (upper panel) or Heu127 (lower panel) were then added. Controls included 293-EBNA cells transfected with HLA-A2 or pBJi-neo-IPC47 alone, and incubation of transfectants with either preprocalcitonin or α-actinin-4 peptides. Data shown are representative of four independent experiments.
The involvement of TAP was tested by cotransfecting into 293-EBNA cells constructs coding for the antigenic peptide, for HLA-A2, and for the immediate-early protein ICP47 of herpes simplex virus type 1, which binds to and inhibits human TAP (BANKS et al., Virology, 200, 236-45, 1994).

CTL clone Heu161 = experiment: CTL stimulation (TNF release) by synthetic peptides loaded on HLA-A2+ MZ2-MEL.3.1 melanoma cells; type: cell-based, human
Method: FIG. 3: Identification of the antigenic peptide recognized by CTL clone Heu161. A. CTL stimulation with purified synthetic peptides. Peptides were loaded on allogeneic HLA-A2^+ MZ2-MEL.3.1 melanoma cells for 60 min at room temperature before addition of CTL clone Heu161. TNF release was measured 16 h later. Empty circles represent the results obtained with peptide SEQ ID NO: 1, full circles represent the results obtained with peptide SEQ ID NO: 2, empty squares represent the results obtained with peptide SEQ ID NO: 24, full squares represent the results obtained with peptide SEQ ID NO: 25 and empty diamonds represent the results obtained with peptide SEQ ID NO: 26. B. Lytic activity of CTL clone on peptide-pulsed cells. ^51Cr-labeled Heu-EBV-B cells were incubated over 60 min with the indicated concentrations of peptides before addition of CTL clone Heu161 at an E/T cell ratio of 10:1. Chromium release was measured after 4 h. Empty circles represent the results obtained with peptide SEQ ID NO: 1, full circles represent the results obtained with peptide SEQ ID NO: 2
TNFβ was detected by measuring the cytotoxicity of the culture medium on TNF-sensitive WEHI-164c13 cells with a MTT colorimetric assay (ESPEVIK & NISSEN-MEYER, J Immunol Methods, 95, 99-105, 1986).
We then prepared a series of calcitonin cDNA fragments truncated at their 5′ end and engineered to contain an initiation codon and a Kozak consensus sequence. […] Further trimming narrowed down the peptide-encoding region to residues 9-38 (FIG. 2B). Among a set of overlapping peptides covering this region, only two were recognized by CTL clone Heu161: VLLQAGSLHA (SEQ ID NO: 1) and LVLLQAGSLHA (SEQ ID NO: 2), which are identical, but with an additional leucine in the latter peptide. […] In a lysis assay, the decamer was slightly more efficient than the 11-mer peptide by a factor of about three (FIG. 3B). We concluded that the optimal antigenic peptide recognized by CTL clone Heu161 was VLLQAGSLHA (SEQ ID NO: 1) or preprocalcitonin16-25. This peptide corresponds exactly to the C-terminal part of the preprocalcitonin signal peptide (LE MOULLEC et al., FEBS Lett, 167, 93-7, 1984).

Compound | sensitivity of tumor cells to lysis by anti-preprocalcitonin CTL clone (IGR-Heu tumor cells [1]) | SPP expression at RNA level (SPP) | SPP expression at protein level (SPP) | also measured
5-GACAUGCCUGAAACAAUCAtt-3 [siRNA-S1] | strong decrease | specifically inhibit SPP expression | specifically inhibit SPP expression | 
5-UGAUUGUUUCAGGCAUGUCtg-3 [siRNA-S2] | strong decrease | specifically inhibit SPP expression | specifically inhibit SPP expression | 
O=c1oc(Cl)c(Cl)c2ccccc12 [DCI, dichloroisocoumarin] |  |  |  | effect on lysis by anti-preprocalcitonin CTL clone (IGR-Heu tumor cells [2]): totally resistant to lysis; effect on recognition by anti-α-actinin-4 CTL clone (IGR-Heu tumor cells [2]): only a moderate effect
ICP47: immediate-early protein ICP47 of herpes simplex virus type 1, which binds to and inhibits human TAP; expressed by cotransfection |  |  |  | effect on recognition of transfectants by anti-preprocalcitonin CTLs (human TAP; cDNA 150 + HLA-A2, FIG. 4B): no detectable effect; effect on recognition of transfectants by anti-α-actinin-4 CTL clone (human TAP; mutated α-actinin-4 cDNA + HLA-A2, FIG. 4B): strongly inhibited
LVLLQAGSLHA [SEQ ID NO: 2] |  |  |  | EC50 (CTL clone Heu161; HLA-A2+ melanoma cells loaded 60 min, TNF release after 16 h, FIG. 3A, read-out: peptide concentration giving half-maximal effect (sensitization to recognition by CTL Heu161)): ~10 nM; recognition of peptide by CTL clone Heu161 (CTL clone Heu161; overlapping synthetic peptides of preprocalcitonin): recognized

— patent publication US8492342B2, “Preprocalcitonin antigen T epitopes” (Institut Gustave Roussy, priority 2007, dated 2013)
